Measurements published in patent US20130210907A1, “METHOD FOR PREVENTING OR TREATING ENTEROCHROMAFFIN CELL HYPERPLASIA-RELATED DISEASES BY QUERCETIN ADMINISTRATION” (HONG KONG BAPTIST UNIVERSITY, priority 2012, published 2013).

Legend:
PI-IBS rats [1] = experiment: Colonic EC cell counting (silver staining); format: in vivo, rat; conditions: for EC cell density: PI-IBS rats, colon
Procedure: (§1) Six groups of 5 rats are tested. The groups setting and treatments are as described in Example 1. Different from Example 1, AWR test are not applied to the rats in this experiment in order to obtain the basal data without CRD stimulus. After the last drug administration, a 6 cm proximal colon (1-2 cm from caecum) is collected and divided into 3 parts, the proximal is fixed in 4% paraformaldehyde and embedded in paraffin for EC cell staining; the middle part is collected for 5-HT content measurement and electron microscopic evaluation, and the distal part is for western blotting analysis.
Tissue sections (5-μm thick) are deparaffinized and rehydrated for silver staining. Briefly, sections are incubated with 5% ammoniacal silver solution for 4 h at room temperature, then 2 h in 56° C. and subsequently 12 h at room temperature in a dark humidified chamber. After rinsing with water, 5% sodium hyposulfite is added and the tissue sections are incubated for 5 min at room temperature. The brown to black silver precipitate in the cytoplasm of EC cells represents as a positive reaction. A researcher blinded to treatment counted 5 random fields at 200× magnifications for each section, and the number of EC cells per mm^2 of mucosa is quantified using Image J NIH software.

PI-IBS rats [2] = experiment: Colonic tissue 5-HT content (capillary electrophoresis, laser-induced fluorescence); format: in vivo, rat; conditions: for 5-HT content: PI-IBS rats, colon
Procedure: as §1
5-HT content in the colon tissue is assayed based on our previously reported procedure in Qi S D, Tian S L, Xu H X, Sung J J, Bian Z X. Quantification of luminally released serotonin in rat proximal colon by capillary electrophoresis with laser-induced fluorescence detection. Anal Bioanal Chem. 2009 April; 393(8):2059-66. Briefly, the colon segment is homogenized in 15% iced trichloroacetic acid; for 2 min and stored at 4° C. for 2 h. After centrifuge at 10,000 G for 15 min, the supernatant of each sample is filtered using 0.22 μm filters and extracted with diethyl ether for five times to remove the trichloroacetic acid. The prepared samples are added to derivatization solution (150 mM sodium tetraborate, 25% acetonitrile, 2 mM CFSE) and incubated for […] in dark at room temperature. The 5-HT content is analyzed by capillary electrophoresis with laser-induced fluorescence detection and expressed as nanogram per milligram (wet weight of tissue).

QGP-1 cells [3] = experiment: Cytotoxicity by lactate dehydrogenase (LDH) release; format: cell-based, human; conditions: QGP-1, 25-100 μM, 24 h
Procedure: The cytotoxicity of Quercetin is determined by lactate dehydrogenase (LDH) assay in QGP-1 cells. Cells are seeded at a density of 5,000 cells/well into 96-well plates and incubated with Quercetin (0-100 μM, 0.01% DMSO) for 24 h. Release of cytoplasmic enzyme lactate dehydrogenase is measured after incubation by using colorimetric assay kit (Roche Molecular Biochemicals, Germany) according to the manufacturer's instructions.

cyclin B1 = experiment: Western blot of cyclin B1 in QGP-1 cells; format: cell-based, human; conditions: QGP-1, 50-100 μM, 24 h
Procedure: After drug treatment, the cells are lysed and centrifuged to collect the protein extract After determination of protein content, the samples protein are denatured at 100° C. for 5 min Proteins are separated by 10-12% SDS-PAGE and transferred to PVDF membranes (Bio-Rad, CA). After blocking with 5% nonfat milk for 1 h at room temperature, the membranes are incubated overnight at 4° C. with primary antibodies (mouse anti-cyclin BE 1:500, Abcam; goat anti-p-Cdc2:1:500, Santa Cruz; mouse anti-p21: 1:500, BD Bioscience). After washing three times in TBST, the membranes where incubated with the appropriate secondary antibodies (1:2000, Invitrogen) for 1 h at room temperature. The immunoreaction is detected using ECL Western blotting kit (ECL, Amersham, UK). Bands are visualized on Biomax X-ray film, and optical density of each band is semi-quantified by software (Image J.NIH). In order to adjust for any variations in loading, all detected protein bands are normalized to β-actin levels.

QGP-1 cells [4] = experiment: Apoptosis by DAPI staining, fluorescence microscopy; format: cell-based, human; conditions: QGP-1, 25~100 μM, 24 h
Procedure: Cells are seeded on coverslips in 24-well plate at the density of 100,000 cells per well and cultured overnight. After exposure to DMSO (control) or different concentration of Quercetin for 24 h, cells are washed three times and fixed with 4% paraformaldehyde for 20 min at room temperature. After washing in PBS, cells are permeabilized in 0.2% tritonX-100 for 10 min and stained with DAPI (20 μg/ml) for 10 min at room temperature in darkness. Slides are examined with a laser scanning microscope (Olympus Fluoview FV1000) 40× magnification. Three hundred cells are counted per slide randomly as previously reported in Ramage L, Jones A C, Whelan C J. Induction of apoptosis with tobacco smoke and related products in A549 lung epithelial cells in vitro. J Inflamm (Lond). 2006; 3:3. Apoptosis cells condense or fragment nuclear chromatin with or without apoptotic bodies, while normal cells have typical morphology with smooth nuclear and membrane.

humans = conditions: 1000 mg/kg/day orally for several months; cited from earlier work

Molecule `O=c1c(O)c(-c2ccc(O)c(O)c2)oc2cc(O)cc(O)c12` [Quercetin, 2-(3,4-dihydroxyphenyl)-3,5,7-trihydroxy-4H-chromen-4-one] has an EC cell density (PI-IBS rats [1]; 5 mg/kg i.g.) of 89 ± 5 Number/mm^2, an EC cell density (PI-IBS rats [1]; 10 mg/kg i.g.) of 72 ± 7 Number/mm^2 and an EC cell density (PI-IBS rats [1]; 20 mg/kg i.g.) of 105 ± 8 Number/mm^2. For the same molecule, the “Decrease of EC cells number compared with the PI-IBS group” value (PI-IBS rats [1]; low dose (5 mg/kg)) was 18%, the “Decrease of EC cells number compared with the PI-IBS group” value (PI-IBS rats [1]; median dose (10 mg/kg)) was 42% and the 5-HT content (PI-IBS rats [2]; 5 mg/kg i.g.) was 5.15 ± 0.58 ng/mg. For the same molecule, the 5-HT content (PI-IBS rats [2]; 10 mg/kg i.g.) was 4.63 ± 0.92 ng/mg, the 5-HT content (PI-IBS rats [2]; 20 mg/kg i.g.) was 5.50 ± 0.65^ ng/mg and the “Decrease of 5-HT content compared with the PI-IBS group” value (PI-IBS rats [2]; low dose (5 mg/kg)) was 28%. The “Decrease of 5-HT content compared with the PI-IBS group” value (PI-IBS rats [2]; median dose (10 mg/kg)) was 35%, the LDH release (QGP-1 cells [3]) was “significant and dose-dependent increase” and the “Protein level of cyclin B1” value (cyclin B1) was “significantly decrease”. The Apoptosis rate (QGP-1 cells [4]) was “concentration-dependently increases” and the “Toxicity on oral administration to humans” value (humans) was “no toxicity”.
